Source: US20230303540A1 (Merck Sharp & Dohme LLC, priority 2020, published 2023)

Target: GST-tagged truncated human mutant G2019S LRRK2 (Homo sapiens, UniProt Q5S007, G2019S)
Experiment: LRRK2 G2019S Km ATP LanthaScreen assay
Type: biochemical
Details: 134 μM ATP (Km ATP), LRRKtide substrate, mean IC50 values; read-out: LRRK2 pIC50 (converted)
Experimental: Unless otherwise noted, all reactions are magnetically stirred. Unless otherwise noted, when diethyl ether is used in the experiments described below, it is Fisher ACS certified material and is stabilized with BHT. Unless otherwise noted, “concentrated” and/or “solvent removed under reduced pressure” means evaporating the solvent from a solution or mixture using a rotary evaporator or vacuum pump. Unless otherwise noted, flash chromatography is carried out on a Teledyne Isco (Lincoln, NE), Analogix (Burlington, WI), or Biotage (Stockholm, SWE) automated chromatography system using a commercially available cartridge as the column. Columns may be purchased from Teledyne Isco, Analogix, Biotage, Varian (Palo Alto, CA), or Supelco (Bellefonte, PA) and are usually filled with silica gel as the stationary phase. Reverse phase prep-HPLC conditions, where used, can be found at the end of each experimental section. Aqueous solutions were concentrated on a Genevac (Ipswich, ENG) or by freeze-drying/lyophilization. Unless otherwise noted, all LRRK2 pIC50 data presented in tables refers to the LRRK2 G2019S Km ATP LanthaScreen™ assay (Life Technologies Corp., Carlsbad, CA) that is described in the Biological Assay section.
The IC50 values reported herein were measured as follows.
Biological Assay: LRRK2 Km ATP LanthaScreen™ Assay
The LRRK2 kinase activity reported herein as IC50 values was determined with LanthaScreen™ technology from Life Technologies Corporation (Carlsbad, CA) using GST-tagged truncated human mutant G2019S LRRK2 in the presence of the fluorescein-labeled peptide substrate LRRKtide, also from Life Technologies. The data presented for the Km ATP LanthaScreen™ Assay represents mean IC50 values based on several test results and may have reasonable deviations depending on the specific conditions and reagents used. Assays were performed in the presence of 134 μM ATP (Km ATP). Upon completion, the assay was stopped and phosphorylated substrate detected with a terbium (Tb)-labeled anti-pERM antibody (cat. no. PV4898). The compound dose response was prepared by diluting a 10 mM stock of compound to a maximum concentration of 9.99 μM in 100% dimethylsulfoxide followed by custom fold serial dilution in dimethylsulfoxide nine times. Twenty nanoliters of each dilution was spotted via a Labcyte Echo onto a 384-well black-sided plate (Corning 3575) followed by 15 μl of a 1.25 nM enzyme solution in 1× assay buffer (50 mM Tris pH 8.5, 10 mM MgCl2, 0.01% Brij-35, 1 mM EGTA, 2 mM dithiothreitol, 0.05 mM sodium orthovanadate). Following a 15-minute incubation at room temperature, the kinase reaction was started with the addition of 5 μl of 400 nM fluorescein-labeled LRRKtide peptide substrate and 134 μM ATP solution in 1× assay buffer. The reaction was allowed to progress at ambient temperature for 90 minutes. The reaction was then stopped by the addition of 20 μl of TR-FRET Dilution Buffer (Life Technologies, Carlsbad, CA) containing 2 nM Tb-labeled anti-phospho LRRKtide antibody and 10 mM EDTA (Life Technologies, Carlsbad, CA). After an incubation of 1 hour at room temperature, the plate was read on an EnVision multimode plate reader (Perkin Elmer, Waltham, MA) with an excitation wavelength of 337 nm (Laser) and a reading emission at both 520 and 495 nm. Compound IC50s were interpolated from nonlinear regression best fits of the log of the final compound concentration, plotted as a function of the 520/495-nm emission ratio using Activity base. Abase uses a 4 parameter (4P) logistic fit based on the Levenberg-Marquardt algorithm.

Structure (SMILES) | IC50
Cc1cc2cnc(Nc3cnn(C4CC4(F)F)c3Cl)nc2cc1N1CCN(C2(C)COCC2O)CC1 (single isomer, unassigned) [Ex-5.5, (3S,4S) or (3R,4R) 4-(4-(2-((5-chloro-1-(2,2-(R) or (S)difluorocyclopropyl)-1H-pyrazol-4-yl)amino)-6-methylquinazolin-7-yl)piperazin-1-yl)-4-methyltetrahydrofuran-3-ol] | 0.42 nM
Cc1cc2cnc(Nc3cnn(C4CC4)c3Cl)nc2cc1N1CCN(C2(C)COCC2O)CC1 (single isomer, unassigned) [Ex-5.6, (3S,4S) or (3R,4R) 4-(4-(2-((5-chloro-1-cyclopropyl-1H-pyrazol-4-yl)amino)-6-methylquinazolin-7-yl)piperazin-1-yl)-4-methyltetrahydrofuran-3-ol] | 0.403 nM
Cc1cc2cnc(Nc3cnn(C4CC4)c3C)nc2cc1N1CCN(C2COCC2O)CC1 (single isomer, unassigned) [Ex-5.7, (3S,4S) or (3R,4R) 4-(4-{2-[(1-cyclopropyl-5-methyl-1H-pyrazol-4-yl)amino]-6-methylquinazolin-7-yl}piperazin-1-yl)oxolan-3-ol] | 0.197 nM
Cc1cc2cnc(Nc3cnn(C4CC4)c3Cl)nc2cc1N1CCN(C2COCC2O)CC1 (single isomer, unassigned) [Ex-5.8, (3S,4S) or (3R,4R) 4-(4-{2-[(5-chloro-1-cyclopropyl-1H-pyrazol-4-yl)amino]-6-methylquinazolin-7-yl}piperazin-1-yl)oxolan-3-ol] | 0.17 nM
Cc1cc2cnc(Nc3cnn(C45CC(C4)C5)c3Cl)nc2cc1N1CCN(C2COCC2O)CC1 (single isomer, unassigned) [Ex-5.12, (3S,4S) or (3R,4R) 4-(4-(2-((1-(bicyclo[1.1.1]pentan-1-yl)-5-chloro-1H-pyrazol-4-yl)amino)-6-methylquinazolin-7-yl)piperazin-1-yl)tetrahydrofuran-3-ol] | 5.17 nM
Cc1cc2cnc(Nc3cnn(C45CC(C4)C5)c3Cl)nc2cc1N1CCN(C2COCC2O)CC1 (single isomer, unassigned) [Ex-5.13, (3S,4S) or (3R,4R) 4-(4-(2-((1-(bicyclo[1.1.1]pentan-1-yl)-5-chloro-1H-pyrazol-4-yl)amino)-6-methylquinazolin-7-yl)piperazin-1-yl)tetrahydrofuran-3-ol] | 1.05 nM
Cc1cc2cnc(Nc3cnn(C45CC(C4)C5)c3Cl)nc2cc1N1CC2(C1)CN(C1COCC1O)C2 (single isomer, unassigned) [Ex-5.16, (3R,4R) or (3S,4S) 4-(6-(2-((1-(bicyclo[1.1.1]pentan-1-yl)-5-chloro-1H-pyrazol-4-yl)amino)-6-methylquinazolin-7-yl)-2,6-diazaspiro[3.3]heptan-2-yl)tetrahydrofuran-3-ol] | 20.9 nM
CC1(N2CCN(c3cc4nc(Nc5cnn(C6CC6(F)F)c5Cl)ncc4cc3Cl)CC2)COCC1O (single isomer, unassigned) [Ex-6.2, (3S,4S) or (3R,4R) 4-(4-(6-chloro-2-((5-chloro-1-(2,2-(R) or (S)difluorocyclopropyl)-1H-pyrazol-4-yl)amino)quinazolin-7-yl)piperazin-1-yl)-4-methyltetrahydrofuran-3-ol] | 0.08 nM
Cn1ncc(Nc2ncc3cc(Cl)c(N4CCN(C5COCC5O)CC4)cc3n2)c1Cl (single isomer, unassigned) [Ex-6.7, (3S,4S) or (3R,4R) 4-(4-{6-chloro-2-[(5-chloro-1-methyl-1H-pyrazol-4-yl)amino]quinazolin-7-yl}piperazin-1-yl)oxolan-3-ol] | 1.59 nM
Cc1c(Nc2ncc3cc(Cl)c(N4CCC(C)(O)CC4)cc3n2)cnn1C1CC1(F)F (single isomer, unassigned) [Ex-6.9, 1-(6-chloro-2-{[1-(2,2-(R) or (S)difluorocyclopropyl)-5-methyl-1H-pyrazol-4-yl]amino}quinazolin-7-yl)-4-methylpiperidin-4-ol] | 1.79 nM
